Assays:
adenosine A2A receptor = adenosine A2A receptor (Homo sapiens (Human), UniProt P29274); assay: Adenosine receptor activity assay (Table 1), A2A activity; assay type: biochemical; details: read-out: Ave A2A cAMP IC50
adenosine A2B receptor = adenosine A2B receptor (Homo sapiens (Human), UniProt P29275); assay: Adenosine receptor activity assay (Table 1), A2B activity; assay type: biochemical; details: for Ratio: A2A activity to A2B activity (A2A/A2B); for IC50: read-out: Ave A2B cAMP IC50
Chain of adenosine A2B receptor (P29275 whole entry): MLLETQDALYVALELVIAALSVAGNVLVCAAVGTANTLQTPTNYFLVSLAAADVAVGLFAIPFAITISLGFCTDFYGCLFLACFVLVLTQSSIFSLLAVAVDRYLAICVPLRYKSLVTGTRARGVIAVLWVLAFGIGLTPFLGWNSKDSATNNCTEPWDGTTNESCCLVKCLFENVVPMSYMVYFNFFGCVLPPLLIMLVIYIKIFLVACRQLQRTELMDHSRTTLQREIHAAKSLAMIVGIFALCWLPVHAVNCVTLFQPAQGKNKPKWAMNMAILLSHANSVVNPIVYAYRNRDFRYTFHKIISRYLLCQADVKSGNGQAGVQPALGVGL

Chain of adenosine A2A receptor (P29274 whole entry): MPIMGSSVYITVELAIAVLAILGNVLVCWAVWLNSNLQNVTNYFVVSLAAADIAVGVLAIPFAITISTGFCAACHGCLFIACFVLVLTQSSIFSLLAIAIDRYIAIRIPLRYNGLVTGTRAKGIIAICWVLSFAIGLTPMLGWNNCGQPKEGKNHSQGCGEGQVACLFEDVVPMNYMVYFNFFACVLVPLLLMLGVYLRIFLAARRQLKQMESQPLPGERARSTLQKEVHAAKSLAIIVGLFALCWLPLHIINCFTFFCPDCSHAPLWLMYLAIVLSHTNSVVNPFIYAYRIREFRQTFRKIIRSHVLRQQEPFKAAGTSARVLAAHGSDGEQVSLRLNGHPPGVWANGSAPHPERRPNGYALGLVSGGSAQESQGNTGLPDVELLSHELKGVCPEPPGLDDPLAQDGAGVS

| IC50 (adenosine A2A receptor) [nM] | Ratio (adenosine A2B receptor) | IC50 (adenosine A2B receptor) [nM] | Structure (SMILES) |
| --- | --- | --- | --- |
| 100 to 500 | 1.41 | 100 to 500 | COc1ccc(CNC(=O)c2nc(NCc3cncc(C)c3)nc3ccsc23)cn1 [Example Z57, N-((6-Methoxypyridin-3-yl)methyl)-2-(((5-methylpyridin-3-yl)methyl)amino)thieno[3,2-d]pyrimidine-4-carboxamide] |
| 100 to 500 | 1.94 | 100 to 500 | C[C@H](Nc1nc(C(=O)NCc2ccc(C#N)nc2)c2sccc2n1)c1ccccn1 [Example Z64, (S)—N-((6-Cyanopyridin-3-yl)methyl)-2-((1-(pyridin-2-yl)ethyl)amino)thieno[3,2-d]pyrimidine-4-carboxamide] |
| > 500 | 14.95 | 50 to 100 | COc1ccc(NC(=O)c2nc(N[C@@H](C)c3ccccn3)nc3ccsc23)cn1 [Example Z65, (S)—N-(6-Methoxypyridin-3-yl)-2-((1-(pyridin-2-yl)ethyl)amino)thieno[3,2-d]pyrimidine-4-carboxamide] |
| 100 to 500 |  | 10 to 50 | COc1ccc(CNC(=O)c2nc(NCc3cncc(F)c3)nc3ccsc23)cn1 [Example Z67, 2-(((5-Fluoropyridin-3-yl)methyl)amino)-N-((6-methoxypyridin-3-yl)methyl)thieno[3,2-d]pyrimidine-4-carboxamide] |
| 50 to 100 |  | 50 to 100 | O=C(NCC1CCN(Cc2ccccc2)CC1)c1nc(NCc2cncc(F)c2)nc2ccsc12 [Example Z68, N-((1-Benzylpiperidin-4-yl)methyl)-2-(((5-fluoropyridin-3-yl)methyl)amino)thieno[3,2-d]pyrimidine-4-carboxamide] |
| > 500 | 0.92 | > 500 | C[C@H](Nc1nc(C(=O)N2CCN(CCCc3ccccc3)CC2)c2sccc2n1)c1cccnc1 [Example Z69, (S)-(4-(3-Phenylpropyl)piperazin-1-yl)(2-((1-(pyridin-3-yl)ethyl)amino)thieno[3,2-d]pyrimidin-4-yl)methanone] |
| > 500 | 10.89 | 50 to 100 | O=C(c1nc(NCc2cccc(O)n2)nc2ccsc12)N1CCCC1 [Example Z70, (2-(((6-Hydroxypyridin-2-yl)methyl)amino)thieno[3,2-d]pyrimidin-4-yl)(pyrrolidin-1-yl)methanone] |
| > 500 | 12.97 | 50 to 100 | O=C(c1nc(NCc2cccc(F)n2)nc2ccsc12)N1CCCC1 [Example Z71, (2-(((6-Fluoropyridin-2-yl)methyl)amino)thieno[3,2-d]pyrimidin-4-yl)(pyrrolidin-1-yl)methanone] |
| > 500 | 1.00 | > 500 | O=C(NCc1ccc(C(F)(F)F)nc1)c1nc(NCc2ccc(C(F)(F)F)nc2)nc2ccsc12 [Example Z72, N-((6-(Trifluoromethyl)pyridin-3-yl)methyl)-2-(((6-(trifluoromethyl)pyridin-3-yl)methyl)amino)thieno[3,2-d]pyrimidine-4-carboxamide] |
| 100 to 500 | 1.74 | 100 to 500 | O=C(NCc1cccc(F)c1)c1nc(NCc2cccc(F)c2)nc2ccsc12 [Example Z74, N-(3-Fluorobenzyl)-2-((3-fluorobenzyl)amino)thieno[3,2-d]pyrimidine-4-carboxamide] |
| > 500 | 1.00 | > 500 | O=C(c1nc(NCc2ccc(C(F)(F)F)nc2)nc2ccsc12)N1CC[C@H](O)C1 [Example Z75, (S)-(3-Hydroxypyrrolidin-1-yl)(2-(((6-(trifluoromethyl)pyridin-3-yl)methyl)amino)thieno[3,2-d]pyrimidin-4-yl)methanone] |
| 100 to 500 | 0.22 | > 500 | O=C(c1nc(NCc2ccc(C(F)(F)F)nc2)nc2ccsc12)N1CCCC1 [Example Z76, Pyrrolidin-1-yl(2-(((6-(trifluoromethyl)pyridin-3-yl)methyl)amino)thieno[3,2-d]pyrimidin-4-yl)methanone] |
| 100 to 500 | 3.77 | 100 to 500 | CC(CNC(=O)c1nc(N[C@@H](C)c2ccccn2)nc2ccsc12)Oc1cccnc1 (stereo partly drawn) [Example Z77, 2-(((S)-1-(Pyridin-2-yl)ethyl)amino)-N-(2-(pyridin-3-yloxy)propyl)thieno[3,2-d]pyrimidine-4-carboxamide] |
| 100 to 500 | 2.02 | 50 to 100 | O=C(NCc1ccccn1)c1nc(NCc2ccccn2)nc2ccsc12 [Example Z78, N-(Pyridin-2-ylmethyl)-2-((pyridin-2-ylmethyl)amino)thieno[3,2-d]pyrimidine-4-carboxamide] |
| 100 to 500 | 1.20 | 50 to 100 | C[C@H](Nc1nc(C(=O)NCc2ccc(C(F)(F)F)nc2)c2sccc2n1)c1ccccn1 [Example Z79, (S)-2-((1-(Pyridin-2-yl)ethyl)amino)-N-((6-(trifluoromethyl)pyridin-3-yl)methyl)thieno[3,2-d]pyrimidine-4-carboxamide] |
| > 500 | 1.00 | > 500 | O=C(c1nc(NCc2cccc(F)c2)nc2ccsc12)N1CCN(CCCc2ccccc2)CC1 [Example Z80, (2-((3-Fluorobenzyl)amino)thieno[3,2-d]pyrimidin-4-yl)(4-(3-phenylpropyl)piperazin-1-yl)methanone] |

| IC50 (adenosine A2A receptor) [nM] | Ratio (adenosine A2B receptor) | IC50 (adenosine A2B receptor) [nM] | Structure (SMILES) |
| --- | --- | --- | --- |
| 100 to 500 | 2.77 | 50 to 100 | O=C(c1nc(NCc2cccc(F)c2)nc2ccsc12)N1CC[C@@H](O)C1 [Example Z81, (R)-(2-((3-Fluorobenzyl)amino)thieno[3,2-d]pyrimidin-4-yl)(3-hydroxypyrrolidin-1-yl)methanone] |
| 50 to 100 | 1.03 | 50 to 100 | COc1ccc(CNC(=O)c2nc(NCc3cccc(F)c3)nc3ccsc23)cn1 [Example Z82, 2-((3-Fluorobenzyl)amino)-N-((6-methoxypyridin-3-yl)methyl)thieno[3,2-d]pyrimidine-4-carboxamide] |
| > 500 | 1.04 | > 500 | O=C(NCCn1ccnc1)c1nc(NCc2cncc(F)c2)nc2ccsc12 [Example Z85, N-(2-(1H-Imidazol-1-yl)ethyl)-2-(((5-fluoropyridin-3-yl)methyl)amino)thieno[3,2-d]pyrimidine-4-carboxamide] |
| > 500 | 1.00 | > 500 | Cc1ncccc1CNC(=O)c1nc(NCc2cccnc2C)nc2ccsc12 [Example Z88, N-((2-Methylpyridin-3-yl)methyl)-2-(((2-methylpyridin-3-yl)methyl)amino)thieno[3,2-d]pyrimidine-4-carboxamide] |
| 100 to 500 | 1.00 | 100 to 500 | COc1ccc(CNC(=O)c2nc(NCc3cccnc3C)nc3ccsc23)cn1 [Example Z94, N-((6-Methoxypyridin-3-yl)methyl)-2-(((2-methylpyridin-3-yl)methyl)amino)thieno[3,2-d]pyrimidine-4-carboxamide] |
| > 500 | 22.37 | 10 to 50 | CC1(O)CN(C(=O)c2nc(NCc3cncc(F)c3)nc3ccsc23)C1 [Example Z98, (2-(((5-Fluoropyridin-3-yl)methyl)amino)thieno[3,2-d]pyrimidin-4-yl)(3-hydroxy-3-methylazetidin-1-yl)methanone] |
| 100 to 500 |  | 10 to 50 | C[C@H](Nc1nc(C(=O)N2CC(C)(O)C2)c2sccc2n1)c1ccccn1 [Example Z101, (S)-(3-Hydroxy-3-methylazetidin-1-yl)(2-((1-(pyridin-2-yl)ethyl)amino)thieno[3,2-d]pyrimidin-4-yl)methanone] |
| 100 to 500 | 2.24 | 100 to 500 | C[C@H](Nc1nc(C(=O)NCc2cncc(C#N)c2)c2sccc2n1)c1ccccn1 [Example Z102, (S)—N-((5-Cyanopyridin-3-yl)methyl)-2-((1-(pyridin-2-yl)ethyl)amino)thieno[3,2-d]pyrimidine-4-carboxamide] |
| > 500 | 3.68 | 100 to 500 | O=C(c1nc(NCc2cccnc2)nc2ccsc12)N1CC[C@@H](O)C1 [Example Z103, (R)-(3-Hydroxypyrrolidin-1-yl)(2-((pyridin-3-ylmethyl)amino)thieno[3,2-d]pyrimidin-4-yl)methanone] |
| 100 to 500 | 0.50 | > 500 | C[C@H](Nc1nc(C(=O)NCc2cncc(C#N)c2)c2sccc2n1)c1cccnc1 [Example Z104, (S)—N-((5-Cyanopyridin-3-yl)methyl)-2-((1-(pyridin-3-yl)ethyl)amino)thieno[3,2-d]pyrimidine-4-carboxamide] |
| 100 to 500 | 2.95 | 10 to 50 | C[C@H](Nc1nc(C(=O)NCCO)c2sccc2n1)c1ccccn1 [Example Z106, (S)—N-(2-hydroxyethyl)-2-((1-(pyridin-2-yl)ethyl)amino)thieno[3,2-d]pyrimidine-4-carboxamide] |
| > 500 | 7.09 | 100 to 500 | CC(C)(Nc1nc(C(=O)N2CCCC2)c2sccc2n1)c1cccnc1 [Example Z112, (2-((2-(Pyridin-3-yl)propan-2-yl)amino)thieno[3,2-d]pyrimidin-4-yl)(pyrrolidin-1-yl)methanone] |
| > 500 | 5.15 | 100 to 500 | COc1cncc(CNc2nc(C(=O)N3CCCC3)c3sccc3n2)c1 [Example Z114, (2-(((5-Methoxypyridin-3-yl)methyl)amino)thieno[3,2-d]pyrimidin-4-yl)(pyrrolidin-1-yl)methanone] |
| > 500 | 4.17 | 100 to 500 | COc1cncc(CNc2nc(C(=O)N3CCC3)c3sccc3n2)c1 [Example Z116, Azetidin-1-yl(2-(((5-methoxypyridin-3-yl)methyl)amino)thieno[3,2-d]pyrimidin-4-yl)methanone] |
| > 500 | 10.87 | 50 to 100 | COc1cncc(CNc2nc(C(=O)N3CC(C)C3)c3sccc3n2)c1 [Example Z117, (2-(((5-Methoxypyridin-3-yl)methyl)amino)thieno[3,2-d]pyrimidin-4-yl)(3-methylazetidin-1-yl)methanone] |
